Laboratory results as given in US20160213777A1, “Novel Delivery Compositions and Methods of Using Same” (THOMAS JEFFERSON UNIVERSITY, priority 2013, published 2016).

How the values were obtained:
A549 cells [1] = assay: Cytotoxicity MTT assay of siRNA/nanoparticle formulations and erlotinib; assay type: cell-based
Method: MTT assay was used to determine the effect of siG12S loaded nanoparticles on the proliferation of A549 cells. Chemosensitivity of siG12S-treated cells to erlotinib was also assessed. Cells (1×10^4 per well) were seeded in 96 well plates and incubated at 37° C. in a humidified atmosphere with 5% carbon dioxide for 24 h. The cells were then treated with different formulations of nanoparticles, siG12S and erlotinib. Cells were incubated for 72 h. 10 μL of 12 Mm MTT reagent were then added to each well. This was then incubated at 37° C. for 4 h. The medium was aspirated and 50 μL of sterile DMSO was added to each well and mixed thoroughly with pipet. The cells were then incubated at 37° C. for 10 min. The plate was read at 540 and 650 nm.

[2] = in water; cited from earlier work
[3] = Scanning electron microscopy (SEM) particle size estimate; assay type: physicochemical
Text: The morphology of the manufactured nanoparticles and the unprocessed IgG was observed by scanning electron microscopy using the Zeiss Supra 50VP system (Zeiss, Germany). Powders were mounted onto aluminum stubs using double sided adhesive tape and were made electrically conductive by coating in a thin layer of gold. The coated samples were then examined under microscope operated at an acceleration voltage of 5 kV.

A549 cells [4] = assay: Cytotoxicity MTT assay of bevacizumab particles; assay type: cell-based; conditions: 72 h
Method: Cells (1×10^4 cells/well) were seeded in 96 well plates and incubated at 37° C. in a humidified air atmosphere with 5% carbon dioxide for 48 h. […] At the end of incubation (after 72 h), MTT reagent was added to each well and incubated for 3 h.
The medium was aspirated, and 100 μL of DMSO was added. The plate was read at 560 nm. Cells treated with DMSO and relevant surfactants were used as a control.
The control contained the appropriate concentrations of the relevant surfactant. (FIGS. 16-18).

[5] = Photon correlation spectroscopy (PCS): particle size and zeta potential, bevacizumab nanoparticles; assay type: physicochemical; conditions: 5 mg/ml bevacizumab solution
Method: Particle size (by intensity) and zeta potential measurements were performed by PCS using Zetasizer Nano ZS (Malvern Instruments, U.K.). The pellets formed after centrifugation at 6,500 rpm for 5 min were thoroughly rinsed and resuspended in deionized water by vortexing. The samples were then sonicated for approximately 5 min. Intensity autocorrelation was measured at a scattering angle (θ) of 173° at 25° C. The Z-average and polydispersity index (PDI) were recorded in triplicate. For zeta potential measurement, the samples were loaded into a universal dip cell (Malvern Instruments, U.K.) before recording the zeta potential in triplicate.
The surfactants seemed to have a concentration-dependent influence on the size and zeta potential of the nanoparticles. […] According to the Manufacturer's Manual, PCS is based on Brownian motion and particles with size above 10 μm tend to quickly sediment. In certain embodiments, under these circumstances, size recorded by the instrument may be due to artifact. […] For surfactant controls, distinct concentrations of the surfactants used in the nanoprecipitation process were dissolved in 0.01 N HCl and titrated with 0.1 N NaOH up to pH 8.4. In the case of nanoparticles, an increase in size was observed as the concentration of the non-ionic surfactant in the precipitation medium increased.

[6] = Far-UV circular dichroism, secondary structure estimated with K2D2; assay type: physicochemical; conditions: bevacizumab particles reconstituted in acetate buffer; K2D2 estimate
Method: CD measurements were performed with Jasco J-810 Spectropolarimeter (Jasco, Md., USA) operating at 20° C. using 0.5 mg/ml of reconstituted solutions of IgG nanoparticles in acetate buffer. CD spectra were obtained in the far UV region (260-190 nm) using a quartz cell of 0.1 path length in order to probe the stability of the secondary structure of the manufactured nanoparticles. A scanning speed of 50 nm/min with a 0.5-second response time was applied followed by five accumulations for each sample. The experiment was repeated in triplicate for each sample. Surfactants dissolved in the acetate buffer at corresponding concentrations were used as blanks. Signals from blanks were subtracted from sample signals. The CD signals were converted to mean residue weight ellipticity and the percentage of the secondary structure retained was estimated using the K2D2 software.
Far UV CD was used to probe for perturbations in the secondary structure of the antibodies following reconstitution in acetate buffer (pH 6). This was done to test whether the secondary structure of the antibodies was still intact, as major perturbation in the secondary structure of proteins may lead to loss or reduction of biological activity.

A549 cells [7] = assay: Uptake/internalization of FITC-labeled bevacizumab particles (flow cytometry, fluorescence microscopy); assay type: cell-based; conditions: 100 μg/mL FITC-labeled particles, 60 min
Method: (§1) A549 and MRC-5 cells (2×10^4 cells/well) were seeded in 8 well coated glass slides and incubated for 48 h. […] Cells were washed with PBS, fixed with 2% paraformaldehyde, and incubated at room temperature for 20 min. PBS washed cells were then blocked with 5% BSA for 30 min at room temperature. Cells were stained with AlexaFluoro-555 labeled wheat germ agglutinin (WGA) and 4′,6-diamidino-2-phenylindole (DAPI) to visualize plasma membrane and nucleus respectively. Cells were mounted and observed under a Leica DMI 6000B fluorescence microscope (Leica Microsystems, Exton, Pa.).
(§2) About 1 million cells/well were seeded in a 12 well plate and incubated for 48 h. […] The cells were trypsinized and centrifuged at 300 g for 5 min, and the pellet was washed and resuspended in 0.4% trypan blue (TB) solution in PBS to quench the extracellular FITC fluorescence. TB, while quenching the FITC fluorescence of non-internalized particles, causes them to fluoresce red whereas an internalized particle will fluoresce green. […] The samples were then analyzed by flow cytometry (BDFACS caliber). 10,000 cells were measured in each sample.
Mean fluorescence intensity obtained from this experiment was compared to that obtained when the A549 cells were treated with 100 μg/mL FITC-labeled bavacizumab nanoparticles alone. […]

MRC-5 cells = assay: as above; assay type: cell-based; conditions: 100 μg/mL FITC-labeled particles, 60 min
Method: as §1
as §2, with “sample. […]” for “sample.”
A549 and MRC-5 cell lines were incubated with FITC-labeled nanoparticles for 15 and 60 minutes. The cells were then washed with D-PBS and extracellular florescence was quenched with trypan blue so that only internalized cells were analyzed. 10,000 cells were measured in each sample.

IL-6 = assay: Immunogenicity and inflammatory reaction in murine macrophages (ELISA); assay type: cell-based; conditions: RAW 264.7, 24 h
Method: (§3) RAW 264.7 murine macrophage cells were seeded in a 96 well plate at a density of 1.5×10^5/well at 37° C. in humidified air with 5% carbon dioxide for 24 h. The cells were then treated with 100 μg/mL of LPS, naked siG12S, siG12S-loaded IP-nanoparticles, siG12S-loaded IgG-nanoparticles and culture medium seperately for 24 h. TNF-α and IL-6 concentrations in supernatant from cultured cells were analyzed using the respective ELISA kit according to the manufacturer's instructions.

TNF-α = assay: as above; assay type: cell-based; conditions: RAW 264.7, 24 h
Method: as §3

serum nuclease = assay: siRNA stability in serum (50% FBS, gel electrophoresis); assay type: in vitro ADME; conditions: 37° C., up to 48 h
Method: IgG-poloxamer-188 nanoparticles (IP-nanoparticles) loaded with siG12S, IgG nanoparticles loaded with siG12S and naked siG12S were incubated in F12K medium containing 50% FBS at 37° C. Aliquots of 5 μl samples were taken at time points up to 48 h. Samples were immediately mixed with 2% SDS, and 5 μl TBE urea sample buffer. The mixture was then heated at 70° C. for 3 minutes in order to deactivate the nuclease enzyme in the serum. The integrity of the siRNA was then analyzed using 15% TBE-ureal gel. siRNA bands were visualized by ethidium bromide staining.
Serum stability was assessed by incubating the naked siRNA and siRNA-loaded nanoparticles in 50% serum and the integrity of the siRNA assessed using gel electrophoresis at different time points. FIG. 41 illustrates the finding that naked siRNA was intact immediately after incubation but degraded after 1 h. In contrast, siRNA in IP nanoparticles was intact after 48 h. siRNA in IgG-nanoparticles was also intact up to 24 h. However, IgG-nanoparticles were not able to protect the siRNA after 24 h.

KRAS = assay: In vitro gene silencing, western blot analysis; assay type: cell-based; conditions: A549 cells, 50 nM siRNA, 96 h
Method: A549 cells were transfected 24 h after seeding in a 6-well plate at density of 2×10^5/well. Naked siG12S and control siRNA (Thermal Scientific, Amarillo, Tex.) were transfected with lipofectamine RNAimax transfection reagent (Invitrogen). siRNA-loaded IP and IgG nanoparticles were incubated with the cells at 37° C. in a humidified air environment with 5% carbon dioxide for 96 h. The total concentration of siRNA used in all experiments was 50 nM.
Cells were washed twice with ice-cold PBS and then lysed in M-Per mammalian lysis buffer (Thermo Scientific). The protein concentration of the lysates was determined with the Bradford reagent (Bio Rad), and equal amounts of protein were subjected to SDS-PAGE using a 10% gel. Separated proteins were transferred to a nitrocellulose membrane, which was then exposed to 5% nonfat dried milk in TBS containing 0.1% Tween 20 (0.1% TBST) for 1 h at room temperature and incubated overnight at 4° C. with antibodies against KRAS (Abcam, Cambridge, Mass.) or actin (Sigma). The membranes were then washed with 0.1% TBST before being incubated with horseradish peroxidase-conjugated goat antibodies to rabbit (Santa Cruz Biotechnology). Immune complexes were detected with chemiluminescence reagents (Perkin-Elmer Life Science).

C#Cc1cccc(Nc2ncnc3cc(OCCOC)c(OCCOC)cc23)c1 [erlotinib]
sensitivity of A549 cells to erlotinib (A549 cells [1]; alone or with siG12S (50 nM)-loaded IP nanoparticles): resistant

Polyoxyethylene (20) sorbitan monolaurate [Tween 20]
critical micelle concentration (CMC) [2]: 0.0075%

Polyoxyethylene (80) sorbitan monooleate [Tween 80]
critical micelle concentration (CMC) [2]: 0.0017%

bevacizumab [Unprocessed bevacizumab]
particle size estimated from SEM [3]: approximately 20 μm | IC50 (A549 cells [4]): ~1800 nM | Zeta potential (mV) [5]: −4.6 ± 0.3 mV | % alpha helix [6]: 7.52% | % β-sheet [6]: 32.19% | internalization by A549 cells (A549 cells [7]): not internalized | internalization by MRC-5 cells (MRC-5 cells): not internalized

naked siG12S: siRNA against mutated KRAS G12S; sense GUUGGAGCUAGUGGCGUAGdTdT (SEQ ID NO:1), antisense SEQ ID NO:2 (sense GUUGGAGCUAGUGGCGUAGNN; antisense CUACGCCACUAGCUCCAACNN; dTdT overhangs, chemistry not fully specified)
production of IL-6 (IL-6): upgraded the production | production of TNF-α (TNF-α): upgraded the production | time siRNA remained intact in serum (serum nuclease): < 1 h | growth of A549 cells (A549 cells [1]; 50 nM siRNA, 72 h): did not inhibit the growth | KRAS expression (knockdown) (KRAS): major reduction in KRAS expression

polyethylene glycol monooleyl ether [Brij 97]
critical micelle concentration (CMC) [2]: 0.029%
